Laboratory results taken from US5627199A, “6-heterocyclic-4-amino-1,2,2A,3,4,5-hexahydrobenz [CD] indoles” (ELi Lilly and Company, priority 1995, dated 1997).
Counter-ions that a name gives are not always drawn.

How the values were obtained:
[1] = molecular target: T1, 5-HT1A receptor (Rattus norvegicus, UniProt P19327); assay: 5-HT1A receptor in vitro binding ([3H]8-OH-DPAT, rat hippocampal membranes); design: species or system male Sprague-Dawley rats; settings: inhibition of [3H]8-OH-DPAT (1.0 nM) binding by 50%, pH 7.4, 10 min at 37° C.
T1 construct: the brains were rapidly chilled and dissected to obtain the hippocampi; from tissue; host or cells: hippocampal membranes of male Sprague-Dawley rats
T1 sequence (P19327 1-422): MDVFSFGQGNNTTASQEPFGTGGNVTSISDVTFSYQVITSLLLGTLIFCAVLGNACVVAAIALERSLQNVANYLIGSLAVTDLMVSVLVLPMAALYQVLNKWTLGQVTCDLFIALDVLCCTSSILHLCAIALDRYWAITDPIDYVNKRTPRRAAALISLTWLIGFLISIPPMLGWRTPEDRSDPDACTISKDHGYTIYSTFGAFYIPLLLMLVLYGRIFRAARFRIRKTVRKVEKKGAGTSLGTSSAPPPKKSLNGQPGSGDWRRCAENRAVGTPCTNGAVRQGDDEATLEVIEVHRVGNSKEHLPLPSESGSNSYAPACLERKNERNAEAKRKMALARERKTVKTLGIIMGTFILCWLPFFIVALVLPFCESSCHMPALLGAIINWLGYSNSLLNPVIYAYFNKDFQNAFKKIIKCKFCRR
Procedure: The affinities of certain of the compounds of Formula 1 at the central 5-HT1A receptors were determined using a modification of the binding assay described by Taylor et al., J. Pharmacol. Exp. Ther. 236, 118-125 (1986). Membranes for the binding assay were prepared from male Sprague-Dawley rats (150-250 g). The animals were killed by decapitation, and the brains were rapidly chilled and dissected to obtain the hippocampi. Membranes from the hippocampi were either prepared that day, or the hippocampi were stored frozen (-70° C.) until the day of preparation. The membranes were prepared by homogenizing the tissue in 40 volumes of ice-cold Tris-HCl buffer (50 mM, pH 7.4 at 22° C.) using a Techmar Tissumizer (setting 65 for 15 sec), and the homogenate was centrifuged at 39800× g for 10 minutes. The resulting pellet was then resuspended in the same buffer, and the centrifugation and resuspension process was repeated three additional times to wash the membranes. Between the second and third washes the resuspended membranes were incubated for 10 minutes at 37° C. to facilitate the removal of endogenous ligands. The final pellet was resuspended in 67 mM Tris-HCl, pH 7.4, to a concentration of 2 mg of tissue original wet weight/200 μl. This homogenate was stored frozen (-70° C.) until the day of the binding assay. […] The assay tubes were incubated for 10 minutes at 37° C. and the contents were then rapidly filtered through GF/B filters (pretreated with 0.5% polyethylenimine), followed by four 1 ml washes with ice-cold buffer. The radioactivity trapped by the filters was quantitated by liquid scintillation spectrometry, and specific [^3 H]8-OH-DPAT binding to the 5-HT1A sites was defined as the difference between [^3 H]8-OH-DPAT bound in the presence and absence of 10 μM 5-HT.
In Table 1, the first column provides the Example Number of the compound evaluated while the second column provides the amount of test compound (expressed in nanomolar concentration) required to inhibit the binding of [^3 H]8-OH-DPAT by 50% (indicated as IC50).

[2] = molecular target: 5-HT1D receptor; assay: 5-HT1D receptor in vitro binding ([3H]5-HT, bovine caudate membranes); settings: inhibition of [3H]5-HT (1.7-1.9 nM) binding by 50%, 8-OH-DPAT and mesulergine (100 nM each) as masks, pH 7.4, 10 min at 37° C.
Procedure: The affinities of certain of the compounds of Formula 1 at the central 5-HT1D binding sites were determined using a modification of the binding assay described by Heuring and Peroutka, J. Neurosci., 7, 894 (1987). Bovine brains were obtained and the caudate nuclei were dissected out and frozen at -70° C. until the time that the membranes were prepared for the binding assays. At that time the tissues were homogenized in 40 volumes of ice-cold Tris-HCl buffer (50 mM, pH 7.4 at 22° C.) with a Techmar Tissumizer (setting 65 for 15 sec), and the homogenate was centrifuged at 39,800× g for 10 minutes. The resulting pellet was then resuspended in the same buffer, and the centrifugation and resuspension process was repeated three additional times to wash the membranes. Between the second and third washes the resuspended membranes were incubated for 10 minutes at 37° C. to facilitate the removal of endogenous 5-HT. The final pellet was resuspended in the buffer to a concentration of 25 mg of original tissue wet weight/ml for use in the binding assay. […] The assay tubes were incubated for 10 minutes at 37° C. and the contents were then rapidly filtered through GF/B filters (pretreated with 0.5% polyethylenimine), followed by four 1 ml washes with ice-cold buffer. The radioactivity trapped by the filters was quantitated by liquid scintillation spectrometry, and specific [^3 H]5-HT binding to the 5-HT1D sites was defined as the difference between [^3 H]5-HT bound in the presence and absence of 10 μM 5-HT.
In Table 2, the first column provides the Example Number of the compound evaluated while the second column provides the amount of test compound (expressed in nanomolar concentration) required to inhibit the binding of [^3 H]5-HT by 50% (indicated as IC50).

SMILES | IC50 [1] | IC50 [2]
CCCN(CCC)[C@H]1Cc2c(-c3cc[nH]n3)ccc3c2[C@@H](CN3)C1 [Example 6, (+)(2aS,4R)-6-(3-pyrazolyl)-4-(di-n-propylamino)-1,2,2a,3,4,5-hexahydrobenz[cd]indole.2HCL] | 6.37 nM | 30 nM
CCCN(CCC)[C@H]1Cc2c(-c3cccnc3)ccc3c2[C@@H](CN3)C1 [Example 18, (+)(2aS,4R)-6-(3-pyridyl)-4-(di-n-propylamino)-1,2,2a,3,4,5-hexahydrobenz[cd]indole] | 1.92 nM | 40.3 nM
CCCN(CCC)[C@H]1Cc2c(-c3ccccn3)ccc3c2[C@@H](CN3)C1 [Example 17, (+)(2aS, 4R)-6-(2-pyridyl)-4-(di-n-propylamino)-1,2,2a,3,4,5-hexahydrobenz[cd]indol] | 17.3 nM | 163 nM
CCCN(CCC)[C@@H]1Cc2c(-c3nc(-c4ccccc4)no3)ccc3c2[C@H](CN3)C1 [Example 12, (2aR,4S)-6-(3-phenyl-1,2,4-oxadiazol-5-yl)-4-(di-n-propylamino)-1,2,2a,3,4,5-hexahydrobenz[cd]indole] | 105 nM | –
CCCN(CCC)[C@H]1Cc2c(-c3ccoc3)ccc3c2[C@@H](CN3)C1 [Example 15, (+)(2aS,4R)-6-(3-furyl)-4-(di-n-propylamino)-1,2,2a,3,4,5-hexahydrobenz[cd]indole] | 2.74 nM | 19.4 nM

More lines, now with the values ahead:

IC50 [1] | IC50 [2] | SMILES
1.95 nM | 23.6 nM | CCCN(CCC)C1Cc2c(-c3ccno3)ccc3c2C(CN3)C1 (racemic) [Example 7, (±)-6-(5-isoxazolyl)-4-(di-n-propylamino)-1,2,2a,3,4,5-hexahydrobenz[cd]indole.2HCl]
21.1 nM | 1890 nM | CCCN(CCC)[C@@H]1Cc2c(-c3ccco3)ccc3c2[C@H](CN3)C1 [Example 13, (-)(2aR,4S)-6-(2-furyl)-4-(di-n-propylamino)-1,2,2a,3,4,5-hexahydrobenz[cd]indole]
0.91 nM | 9.12 nM | CCCN(CCC)[C@H]1Cc2c(-c3ccon3)ccc3c2[C@@H](CN3)C1 [Example 8, (+)(2aS,4R)-6-(3-isoxazolyl)-4-(di-n-propylamino)-1,2,2a,3,4,5-hexahydrobenz[cd]indole.2 HCl]
0.73 nM | 11.2 nM | CCCN(CCC)[C@H]1Cc2c(-c3ccno3)ccc3c2[C@@H](CN3)C1 [Example 10, (+)(2aS, 4R)-6-(5-isoxazolyl)-4-(di-n-propylamino)-1,2,2a,3,4,5-hexahydrobenz[cd]indole.2 HCl]
2.08 nM | 1380 nM | CCCN(CCC)[C@@H]1Cc2c(-c3ccno3)ccc3c2[C@H](CN3)C1 [Example 11, (-)(2aR,4S)-6-(5-isoxazolyl)-4-(di-n-propylamino)-1,2,2a,3,4,5-hexahydrobenz[cd]indole.2 HCl]
5.3 nM | 43.1 nM | CCCN(CCC)[C@H]1Cc2c(-c3ccco3)ccc3c2[C@@H](CN3)C1 [Example 14, (+)(2aS,4R)-6-(2-furyl)-4-(di-n-propylamino)-1,2,2a,3,4,5-hexahydrobenz[cd]indole]
